Assay results taken from PubChem BioAssay (NCI).
“And” between values parts separate entries of the source, which are not always exact repeats. Identical values can stand only once.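 All cell lines were grown in 96-well plates and treated with compound for 48 hours. GI50: concentration for 50% inhibition of growth. TGI: concentration producing complete growth inhibition.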

What was measured:
Assay in all cases: inhibition of tumour cell growth, NCI panel, 48 h
[1] = test system: ACHN renal
[2] = test system: COLO 205 colon
[3] = test system: IGROV1 ovarian
[4] = test system: KM12 colon
[5] = test system: NCI-H226 lung
[6] = test system: NCI-H23 lung
[7] = test system: OVCAR-4 ovarian
[8] = test system: SK-MEL-2 melanoma
[9] = test system: DMS 273 small cell lung

SMILES | GI50 [1] | TGI [1] | GI50 [2] | GI50 [3] | TGI [3] | GI50 [4] | TGI [4] | GI50 [5] | TGI [5] | GI50 [6] | GI50 [7] | TGI [7] | GI50 [8] | TGI [8] | TGI [2] | TGI [6] | TGI [9] [µM]
CC(=O)OC1OC([C@H]2c3cccc(O)c3C(=O)c3c(O)cc(C)cc32)C(O)C(O)C1O (some centres not stated) | 72.9 nM | 0.437 µM | 42.1 nM | 224 nM | > 100 µM | 202 nM | 0.624 µM | < 10 nM | 0.0455 µM | < 16.1 nM | < 40.2 nM | > 89.2 µM | 96.2 nM | 2.63 µM | – | – | –
CCOc1cccc(/C=N/NC(=O)c2cccc(Nc3ccnc(C(F)(F)F)c3)c2)c1O | 699 nM | > 50.3 µM | 532 nM | 852 nM | > 52.6 µM | 1480 nM | 17.6 µM | 827 nM | 9.82 µM | 1620 nM | 723 nM | 48.6 µM | 8500 nM | 39.9 µM | 18.4 µM | 20.8 µM | –
CCOc1cc(C(C)(C)C)ccc1C1=N[C@H](c2ccc(Cl)cc2)[C@H](c2ccc(Cl)cc2)N1C(=O)N1CCN(CC#Cc2cccc3c2CN([C@@H]2CCC(=O)NC2=O)C3=O)CC1 | 1240 nM | 12.4 µM | 472 nM | 165 nM | > 33.5 µM | 2220 nM | > 100 µM | 112 nM | 4.33 µM | 8140 nM | 101 nM | > 100 µM | 2980 nM | 13.6 µM | – | > 100 µM | –
COc1ccc2c(c1)NC1=C(C(=O)OC1)C2c1cc(OC)c(OC)c(OC)c1 (configuration not stated) | < 10 nM | > 100 µM | < 10 nM | < 10 nM | > 100 µM | < 10 nM | > 100 µM | < 10 nM | > 100 µM | < 10 nM | < 37.5 nM | > 100 µM | < 10 nM | > 100 µM | < 0.01 µM | > 77 µM | –
CC(=O)Oc1cc2c(cc1OC(C)=O)C1(C)CCC2(C)c2cc(OC(C)=O)c(OC(C)=O)cc21 | – | > 100 µM | – | – | 72.3 µM | – | 28.8 µM | – | – | – | – | 32.1 µM | – | 66.4 µM | > 100 µM | > 100 µM | > 100
Cc1cn(C2CC(OC(=O)c3ccc(Cl)cc3)C(COC(=O)c3ccc(Cl)cc3)O2)c(=O)[nH]c1=O (configuration not stated) | – | > 100 µM | – | – | > 100 µM | – | > 100 µM | – | > 100 µM | – | – | > 100 µM | – | > 100 µM | > 100 µM | > 100 µM | –
C=C(C)C1CC2(C)C(C)CC(O)CC2C(OC(=O)C=C(C)C)C1O (configuration not stated) | – | 52 µM | – | – | > 100 µM | – | > 100 µM | – | 46.2 µM | – | – | > 100 µM | – | > 100 µM | 32.4 µM | > 100 µM | –
CCCCCCCCCCCCCCCCCCOC[C@H](COP(=O)(O)O[C@H]1[C@H](O)[C@@H](O)[C@H](O)C[C@H]1O)OC | > 100000 nM and 16300 nM | > 100 µM and 30 µM | 26600 nM and 11000 nM | 21900 nM and 3280 nM | 60.6 µM and 13.5 µM | 25900 nM and 4670 nM | > 100 µM and 28.1 µM | > 100000 nM and 24000 nM | > 100 µM and 44.5 µM | > 100000 nM and 19300 nM | > 100000 nM and 16000 nM | > 100 µM and 36.8 µM | > 100000 nM and 16300 nM | > 100 µM and 30.2 µM | > 100 µM and 24.2 µM | > 100 µM and 35 µM | –
COc1ccc(C(C#N)NC23CC4CC(CC(C4)C2)C3)cc1 (configuration not stated) | – | > 100 µM | – | – | > 100 µM | – | > 100 µM | – | > 100 µM | – | – | > 100 µM | – | > 100 µM | > 100 µM | > 100 µM | –
C=CC(=O)N1CCC(Oc2cc3c(Nc4ccc(Cl)c(Cl)c4F)ncnc3cc2OC)CC1 | < 1 nM | 14.9 µM and > 10 µM | 4260 nM and 3520 nM | 85.5 nM and 10.4 nM | 4.39 µM and 1.72 µM | 7960 nM and 4120 nM | 27.1 µM and > 10 µM | 1840 nM and 944 nM | 16.2 µM and > 10 µM | 4520 nM and 3180 nM | 2650 nM and 2560 nM | 31.5 µM and > 10 µM | 6150 nM and 1950 nM | 27 µM and 6.41 µM | 17.4 µM and > 10 µM | 21.7 µM and > 10 µM | –
O=C(O)CSCCc1ccccc1 | – | > 100 µM | – | – | > 100 µM | – | > 100 µM | – | > 100 µM | – | – | > 100 µM | – | > 100 µM | > 100 µM | > 100 µM | –
Nc1n[nH]c2cccc(C#Cc3cccc(NC(=O)c4cccc(C(F)(F)F)c4)c3)c12 | 2440 nM | 9.78 µM | 3650 nM | 1530 nM | 4.31 µM | 4520 nM | 19.8 µM | 860 nM | 20.3 µM | 2860 nM | 3670 nM | 17.7 µM | 1360 nM | 6.95 µM | 15.1 µM | 15.8 µM | –
CC(C)(C)c1cc([N+](=O)[O-])cc([N+](=O)[O-])c1O | – | > 10 µM | – | – | > 10 µM | – | > 10 µM | – | > 10 µM | – | – | > 10 µM | – | > 10 µM | > 10 µM | > 10 µM | –
C[C@]12CCc3sc(Nc4ccc(OC(F)(F)F)cc4)nc3C1=CC[C@@H]1[C@@H]2CC[C@]2(C)C(=O)CC[C@@H]12 | 3270 nM | 10.8 µM | 2610 nM | 3320 nM | 10.8 µM | 3560 nM | 15 µM | 6370 nM | 44.1 µM | 3730 nM | 3310 nM | 25.8 µM | 3000 nM | 11.6 µM | 6.76 µM | 21.7 µM | –
COc1cccc2c1C(=N)c1c(O)c3c(c(O)c1C2=O)C[C@@](O)(C(C)=O)C[C@@H]3O[C@H]1C[C@H](N)[C@H](O)[C@H](C)O1 | 419 nM | 3.1 µM | – | 645 nM | 6.25 µM | 1320 nM | 8.68 µM | 167 nM | 1.4 µM | 233 nM | – | 7.68 µM | 2280 nM | 4.95 µM | 3.16 µM | 1.16 µM | –
Cc1nnc(-c2ccc(C)c(-c3ccc(C(=O)Nc4cccc(C#N)c4)cc3)c2)o1 | > 25000 nM | > 25 µM | > 25000 nM | > 25000 nM | > 25 µM | > 25000 nM | > 25 µM | > 10900 nM | > 25 µM | > 25000 nM | 17700 nM | > 25 µM | > 25000 nM | > 25 µM | > 25 µM | > 25 µM | –
Cn1c(Cl)c(/C=C2/C(=O)Nc3ccccc32)c2ccccc21 | 1150 nM | 18.8 µM | 705 nM | 2120 nM | > 100 µM | 68.9 nM | 1.27 µM | 1830 nM | 21.9 µM | 1020 nM | 2620 nM | > 46.7 µM | 2320 nM | 26.1 µM | 6.64 µM | 8.89 µM | –
COc1cc(C2c3cc4c(cc3OC(C)(N3CCCC3)C2C)OCO4)cc(OC)c1OC (configuration not stated) | – | > 79.9 µM | – | – | 46.7 µM | – | 9.45 µM | – | 2.05 µM | – | – | > 100 µM | – | 52.1 µM | 0.528 µM | 6.32 µM | –
CC/C=C\C[C@H]1CC=C2C(=O)C=C[C@@H]2CC=CCCCC(=O)O[C@@H](CCCCC)CC=C2C(=O)C=C[C@@H]2CC=CCCCC(=O)O[C@@H](CCCCC)CC=C2C(=O)C=C[C@@H]2CC=CCCCC(=O)O[C@@H](CCCCC)CC=C2C(=O)C=C[C@@H]2CC=CCCCC(=O)O1 | 2620 nM | > 7.9 µM | 1640 nM | 2320 nM | 7.81 µM | 2510 nM | > 7.9 µM | 2480 nM | > 7.9 µM | 2340 nM | 2200 nM | > 7.9 µM | 2210 nM | 5.38 µM | 3.6 µM | > 7.9 µM | –
CCN1C(=O)/C(=C/c2c(Cl)[nH]c3cc(C)c(OC)cc23)c2ccccc21 | 9360 nM | > 100 µM | 2770 nM | 2070 nM | > 100 µM | 483 nM | 12.2 µM | 32200 nM | > 100 µM | 5370 nM | 29800 nM | > 100 µM | 708 nM | > 100 µM | 15.4 µM | > 100 µM | –
CCN1CCCc2cc3c(C(F)(F)F)cc(=O)oc3cc21 | – | > 100 µM | – | – | > 100 µM | – | > 100 µM | – | > 100 µM | – | – | > 100 µM | – | > 100 µM | > 100 µM | > 100 µM | –
CN(C)Cc1cc(C(F)(F)F)ccc1C(O)(c1ccccc1)c1ccccc1 | – | 29.9 µM | – | – | 30.9 µM | – | 49.6 µM | – | 31.1 µM | – | – | 37.5 µM | – | 41 µM | 20.8 µM | 79.3 µM | –
CN(c1ccc(NC(=O)Nc2c(Cl)cccc2Cl)cc1)c1ccnc(Nc2cccc(CS(C)(=O)=O)c2)n1 | 3480 nM | 8.79 µM | 160 nM | 4570 nM | > 17 µM | 104 nM | 5.12 µM | 4670 nM | > 20.2 µM | 2680 nM | 3120 nM | 12.5 µM | 5000 nM | 11.9 µM | 11.9 µM | 18.5 µM | –
CCN1C(=O)c2ccc3c4c(ccc(c24)C1=O)C(=O)N(CCCNCc1ccccc1OC)C3=O | 553 nM | 4.63 µM | 201 nM | 1280 nM | 4.37 µM | 630 nM | 3.75 µM | 1280 nM | 2.77 µM | 782 nM | 152 nM | 0.345 µM | 1550 nM | 3.48 µM | 0.382 µM | 3.68 µM | –
